{
  "source": "paper PMC12236907",
  "about": "“A Natural Depsipeptide Antibiotic that Targets the E site of the Bacterial Ribosome” (Research Square, 2025)",
  "key": {"[1]": {"system": "eukaryotic ribosome", "settings": "ref [23],[29],[55]; cited from earlier work", "excerpt": "Superficially, the mode of action of MKM resembles that of CHX, since MKM also stalls the elongating ribosome. However, the mechanism of translation inhibition by CHX and MKM are likely to be principally different. Because of the small size of CHX, it was proposed to co-accommodate in the E site of the eukaryotic ribosome ..."}, "[2]": {"system": "bacterial translation", "settings": "ref [32],[33]; cited from earlier work", "procedure": "Bound in its primary site, MKM obstructs placement of C75 and A76 of the CCA end of a deacylated tRNA within the E-site of the large ribosomal subunit, with the most significant overlap of Phe3 of MKM with the 3’ terminal adenine of the E-tRNA (Fig. 3h)."}, "[3]": {"system": "K. pneumoniae ATCC 33495 and C1559", "assay": "C. elegans – K. pneumoniae in vivo antibiotic activity assay (survival)", "design": "species or system K. pneumoniae in Caenorhabditis elegans", "settings": "MKM 64 μg/ml or polymyxin B 25 μg/ml, 6 days, vs DMSO; Log-rank (Mantel–Cox) test", "procedure": "A C. elegans double mutant strain, AU37 (glp-4(bn2);sek-1(km4)), was used for this assay due to its enhanced pathogen infection sensitivity and temperature-sensitive sterility. The infection protocol was carried out as previously described, with slight modifications to accommodate our experimental conditions. Standard C. elegans media and protocols were used for the maintenance and growth of worms. To summarize, eggs were collected from gravid adult worms by bleaching and incubated on solid agar plates at 25 °C for 48 hours, until early adulthood. Worms were thoroughly washed with M9 buffer and transferred onto LB agar plates containing lawns of infective K. pneumoniae and incubated for another 24 hours. Worms were then washed from plates and resuspended in M9 to an approximate 2 worm per microlitre concentration. A survival assay was conducted in a 96-well plate with experimental wells containing 15 μl of worms, 80 μl S-basal (5.85 g NaCl, 1 g K2HPO4, 6 g KH2PO4, 1 ml cholesterol (5 mg/ml in ethanol), H2O to 1 litre. Sterilize by autoclaving), and 5 μl of test compound. Plates were sealed with a porous film and incubated at 25°C for a total of 7 days. The number of dead worms were counted every 24 hours to generate a Kaplan-Meier survival curve."}},
  "data": [
    {"compound": "C[C@@H]1C[C@@H]([C@H](O)CC2CC(=O)NC(=O)C2)C(=O)[C@@H](C)C1", "note": "[cycloheximide]", "values": [
      {"measurement": "effect on eukaryotic translation", "setting": "[1]", "result": "arrests the elongating ribosome"},
      {"measurement": "inhibition of bacterial translation", "setting": "[2]", "result": "do not inhibit bacterial translation"}
    ]},
    {"compound": "CC(=O)O[C@@H]1[C@@H](O)[C@H](O[C@H]2[C@H](OC(=O)[C@H]3CC[C@@H]4[C@H](C3)O[C@@]3(C[C@H](OC(=O)/C=C/c5ccccc5)[C@H](C)CO3)[C@]43CO3)O[C@H](C)[C@@H](O)[C@@H]2OC(C)=O)O[C@H](C)[C@H]1O", "note": "[phyllanthoside]", "values": [
      {"measurement": "inhibition of bacterial translation", "setting": "[2]", "result": "do not inhibit bacterial translation"}
    ]},
    {"compound": "C/C(=C\\[C@H](C)C(=O)C[C@H](O)CC1CC(=O)NC(=O)C1)[C@@H]1OC(=O)/C=C/CC/C=C/C=C\\[C@@H]1C", "note": "[lactimidomycin]", "values": [
      {"measurement": "effect on eukaryotic translation", "setting": "[1]", "result": "captures the ribosomes at start codons but has little effect on translation elongation or termination"},
      {"measurement": "inhibition of bacterial translation", "setting": "[2]", "result": "do not inhibit bacterial translation"}
    ]},
    {"compound": "polymyxin B [reference compound]", "values": [
      {"measurement": "survival benefit in C. elegans (in words)", "setting": "[3]", "result": "significantly improved survival"}
    ]},
    {"compound": "C/C=C\\[C@H](C)[C@H]1O[C@]1(C)[C@@H](O)[C@H]1COC(=O)[C@H](O)[C@@H](OC)[C@H](C)C(=O)[C@H](C)[C@@H](O)/C(C)=C/[C@H](C)C(=O)CC[C@@H](C)C1=O", "note": "[13-deoxytedanolide]", "values": [
      {"measurement": "inhibition of bacterial translation", "setting": "[2]", "result": "do not inhibit bacterial translation"}
    ]}
  ]
}
